Source: patent publication US20170035708A1, “USE OF N-(4-TERT-BUTYLBENZYL)-3-CHLORO-N-[2-(4-CHLORO-3-ETHYL-PHENYL)-ETHYL]-2-FLUORO-5-TRIFLUOROMETHYL-BENZAMIDE FOR THE TREATMENT OF EYE DISEASES” (Hoffmann-La Roche Inc., priority 2013, published 2017)

Tested on: Human umbilical vein endothelial cells (HUVEC)
Experiment: alamarBlue viability assay in HUVECs
Format: cell-based
Settings: 72 h
Procedure: Human umbilical vein endothelial cells (HUVEC), the growth medium EGM and the basal medium EBM was obtained from Lonza. Additional FCS for the starving medium was used form Invitrogen.
The viability assay with alamarBlue® from Invitrogen was done in 96 well gelatin coated plates from BD.
The tested compounds were dissolved in DMSO at a stock concentration of 10 mM.
VEGF-A165 was obtained from R&D Systems® and has been dissolved at a stock concentration of 100 ug/ml in PBS.
HUVECs cells were maintained in Endothial growth medium (EGM) until Passage 5. For the viability assay HUVECs have been seeded in EBM with 0.5% FCS on gelatin coated 96 well plates at a cell density of 11.000 cells/well. Outer wells were left free and have been filled with medium afterwards. Cells were incubated overnight in a cell culture incubator at 37° C. with 5% CO2. Compounds and VEGF have been diluted in EBM/0.5% FCS to a 20× working concentration. 5 ul of the 20× pre-dilution have been added to the cells. HUVECs which have to be intended to grow under hypoxia conditions have been transferred to a cell culture incubator with 1% O2, 5% CO2 and 37° C. HUVECs grown under normoxia conditions were incubated in a normal cell culture incubator. After 72 h, 11 ul of alamarBlue® have been added to each well of the cells subsequently incubated for 4 h in the cell culture incubator. The absorbance has been detected at 570 nm with a reference wavelength of 600 nm.

Compound | alamarBlue assay OD 570 nm-600 nm (4.1 nM, hypoxia) | alamarBlue assay OD 570 nm-600 nm (4.1 nM, normoxia) | alamarBlue assay OD 570 nm-600 nm (10.2 nM, hypoxia) | alamarBlue assay OD 570 nm-600 nm (10.2 nM, normoxia) | alamarBlue assay OD 570 nm-600 nm (25.6 nM, hypoxia) | alamarBlue assay OD 570 nm-600 nm (25.6 nM, normoxia) | alamarBlue assay OD 570 nm-600 nm (64 nM, hypoxia) | alamarBlue assay OD 570 nm-600 nm (64 nM, normoxia) | alamarBlue assay OD 570 nm-600 nm (160 nM, hypoxia) | alamarBlue assay OD 570 nm-600 nm (160 nM, normoxia) | alamarBlue assay OD 570 nm-600 nm (400 nM, hypoxia) | alamarBlue assay OD 570 nm-600 nm (400 nM, normoxia) | alamarBlue assay OD 570 nm-600 nm (1000 nM, hypoxia) | alamarBlue assay OD 570 nm-600 nm (1000 nM, normoxia) | alamarBlue assay OD 570 nm-600 nm (2500 nM, hypoxia) | alamarBlue assay OD 570 nm-600 nm (2500 nM, normoxia) | effect on viability of HUVECs (hypoxia) | effect on viability of HUVECs (normoxia) | other results
CCOC(=O)N1c2ccc(C(F)(F)F)cc2[C@@H](N(Cc2cc(C(F)(F)F)cc(C(F)(F)F)c2)C(=O)OC)C[C@H]1CC [Torcetrapib, [2R, 4S] 4-[(3,5-bis-trifluoromethyl-benzyl)-methoxycarbonyl-amino]-2-ethyl-6-trifluoromethyl-3,4-dihydro-2H-quinoline-1-carboxylic acid ethyl ester] | 0.0129 | 0.0020 | 0.0200 | −0.0004 | 0.0118 | 0.0160 | 0.0111 | 0.0007 | 0.0137 | 0.0194 | 0.0308 | 0.0152 | −0.0388 | 0.0001 | −0.0784 | 0.0138 | negative effect on the cell viability | no influence of viability could be detected | 
VEGF |  |  |  |  |  |  |  |  |  |  |  |  |  |  |  |  |  |  | viability measured at 570 nm (alamarBlue) (VEGF 1.2 ng/ml, hypoxia): 0.0480; viability measured at 570 nm (alamarBlue) (VEGF 1.2 ng/ml, normoxia): 0.0268; viability measured at 570 nm (alamarBlue) (VEGF 2.3 ng/ml, hypoxia): 0.0679; viability measured at 570 nm (alamarBlue) (VEGF 2.3 ng/ml, normoxia): 0.0394; viability measured at 570 nm (alamarBlue) (VEGF 4.7 ng/ml, hypoxia): 0.0983; viability measured at 570 nm (alamarBlue) (VEGF 4.7 ng/ml, normoxia): 0.0582; viability measured at 570 nm (alamarBlue) (VEGF 9.4 ng/ml, hypoxia): 0.1114; viability measured at 570 nm (alamarBlue) (VEGF 9.4 ng/ml, normoxia): 0.0908; viability measured at 570 nm (alamarBlue) (VEGF 18.8 ng/ml, hypoxia): 0.1039; viability measured at 570 nm (alamarBlue) (VEGF 18.8 ng/ml, normoxia): 0.1265; viability measured at 570 nm (alamarBlue) (VEGF 37.5 ng/ml, hypoxia): 0.0927; viability measured at 570 nm (alamarBlue) (VEGF 37.5 ng/ml, normoxia): 0.1449; viability measured at 570 nm (alamarBlue) (VEGF 75 ng/ml, hypoxia): 0.0906; viability measured at 570 nm (alamarBlue) (VEGF 75 ng/ml, normoxia): 0.1642; viability measured at 570 nm (alamarBlue) (VEGF 150 ng/ml, hypoxia): 0.0825; viability measured at 570 nm (alamarBlue) (VEGF 150 ng/ml, normoxia): 0.1618; survival signal in HUVECs in response to VEGF-A165 (normoxia and hypoxia): dose dependent survival signal
Cc1cc(C)c2c(c1)[C@@H](N(Cc1cc(C(F)(F)F)cc(C(F)(F)F)c1)c1nnn(C)n1)CCCN2C[C@H]1CC[C@H](C(=O)O)CC1 [Evacetrapib, Trans-4-({(5S)-5-[{[3,5-bis(trifluoromethyl)phenyl]methyl}(2-methyl-2H-tetrazol-5-yl)amino]-7,9-dimethyl-2,3,4,5-tetrahydro-1H-benzazepin-1-yl}methyl) cydohexanecarboxylic acid] | 0.0141 | 0.0032 | 0.0129 | 0.0158 | 0.0131 | 0.0164 | 0.0076 | 0.0051 | 0.0168 | 0.0227 | 0.0403 | 0.0103 | 0.0564 | 0.0191 | −0.1084 | −0.0107 | negative effect on the cell viability | no influence of viability could be detected | 
COc1cc(F)c(C(C)C)cc1-c1ccc(C(F)(F)F)cc1CN1C(=O)O[C@H](c2cc(C(F)(F)F)cc(C(F)(F)F)c2)[C@@H]1C [Anacetrapib, (4S,5R)-5-[3,5-bis(trifluoromethyl)phenyl]-3-({2-[4-fluoro-2-methoxy-5-(propan-2-yl)phenyl]-5-(trifluoromethyl)phenyl}methyl)-4-methyl-1,3-oxazolidin-2-one] | 0.0003 | 0.0096 | 0.0065 | 0.0170 | 0.0014 | 0.0203 | 0.0093 | 0.0119 | −0.0022 | 0.0168 | 0.0260 | 0.0352 | 0.0565 | 0.0662 | 0.0814 | 0.0846 | positive effect on viability, albeit with lower efficacy | positive effect of viability | 
